Square brackets hold non-standard residues; d marks the D form. Peptide text beside a SMILES is read from it. 2Nal = N[C@@H](Cc1ccc2ccccc2c1)C(=O)O; Cit = NC(=O)NCCC[C@H](N)C(=O)O
Experiments:
in vitro = details: human, HELA cells (Acc57)
Method: Each peptide concentration was assayed in triplicate. […] Wells were then washed once with PBS and subsequently 100 μl MTT reagent (0.5 mg/mL in medium RPMI1640 and, respectively, DMEM) was added to the wells. This was incubated at 37° C. for 2 hours and subsequently the medium was aspirated and 100 μl isopropanol was added to each well. […] For each concentration averages were calculated from triplicates. The percentage of growth was calculated as follows: (OD595peptide-OD595Tz-OD595Empty well)/(OD595Tz-OD595Empty well)×100% and was plotted for each peptide concentration.
‘CCR5’ cells were cultured in DMEM medium with 4500 mg/ml glucose, 10% fetal bovine serum (FBS), supplemented with 50 U/ml Penicillin and 50 μg/ml Streptomycin (Pen/Strept.). Hut/4-3 cells were maintained in RPMI medium, 10% FBS, supplemented with Pen/Strept. and 10 mM HEPES. HELA cells and CCRF-CEM cells were maintained in RPMI1640 plus 5% FBS, Pen/Strept and 2 mM L-Glutamine. Cos-7 cells were grown in DMEM medium with 4500 mg/ml glucose supplemented with 10% FCS, Pen/Strept. and 2 mM L-Glutamine. All cell lines were grown at 37° C. at 5% CO2.

[1] = system: human red blood cells (hRBC); test: Hemolysis; assay type: cell-based
Outline: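 Washed fresh human erythrocytes (20% v/v, about 0.9×10^9 cells/ml final) incubated with peptide at 100 μM for 1 h at 37° C. Supernatant diluted 20-fold and OD540 read. Percent hemolysis relative to 0.1% Triton X-100 in H2O (100%), with PBS alone as 0%.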

CXCR4 = CXCR4 (Homo sapiens, UniProt P61073); test: Ca2+-assay method 1: CXCR4-antagonizing activity; assay type: cell-based; set-up: expressed in transfected cells; details: method 1 (Ex. 1-53), CXCR4 transfected pre-B cells, Fura-2; read-out: IC50 (nM) Ca^2+ assay
CXCR4, sequence (P61073 whole entry): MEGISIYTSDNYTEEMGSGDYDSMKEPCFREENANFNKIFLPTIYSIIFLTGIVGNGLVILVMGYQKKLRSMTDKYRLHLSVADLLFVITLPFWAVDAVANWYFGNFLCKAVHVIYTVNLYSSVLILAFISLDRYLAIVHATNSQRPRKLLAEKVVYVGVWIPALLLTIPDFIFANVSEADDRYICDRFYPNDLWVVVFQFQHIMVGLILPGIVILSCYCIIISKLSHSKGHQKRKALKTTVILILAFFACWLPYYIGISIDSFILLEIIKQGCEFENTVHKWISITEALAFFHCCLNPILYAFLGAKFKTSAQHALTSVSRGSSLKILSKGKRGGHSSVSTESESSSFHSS
Method: 2.2. Ca^2+-Assay: CXCR4-Antagonizing Activity of the Peptides.
The cells were washed free from Fura-2-AM with a platelet centrifuge and resuspended in 800 μl MSB containing 5 mM D-Glucose. The peptides to be administered were diluted to a 100 fold end concentration in MSB/0.2% PPL, and 8 μl were injected. […] Measurements were done under continuous stirring at 37° C. The signal intension was calibrated with 3 mM CaCl2/[…] lonomycin (maximal fura-2-acetoxymethylester saturation) and 10 μM MnCl2 (minimal Fura-2-acetoxymethylester saturation) and [Ca^2+]i-changes are presented in % fora-2-acetoxymethylester saturation. The rate of [Ca^2+]i-changes was calculated on the basis of the initial [Ca^2+]i-changes and plotted in dependence of chemokine concentration to obtain a sigmoidal curve and to determine the IC50 values.
Osmolarity: 310 mOsm adjusted with NaOH or HCl, adjusted with H2O or PBS.
MSB plus: 5 mM D-glucose in MSB (50 mg/50 mL).
Fura 2-acetoxymethylester: 1 mM stock solution in dimethylsulfoxide.
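For CC50 in this document: MTT reduction read as absorbance at 595 nm, blank-corrected and expressed as percent growth relative to the time-zero cell reading, triplicate wells per concentration.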

CC(C)[C@@H]1NC(=O)[C@H](Cc2ccc3ccccc3c2)NC(=O)[C@H](CCCNC(=N)N)NC(=O)[C@H](CCCNC(=N)N)NC(=O)[C@@H]2CCCN2C(=O)[C@H](Cc2ccccc2)NC(=O)[C@H](CCCNC(=N)N)NC(=O)[C@H](Cc2ccccc2)NC(=O)[C@H](CCCNC(N)=O)NC(=O)[C@H](CCCNC(=N)N)NC(=O)[C@H](Cc2ccc(O)cc2)NC(=O)[C@@H]2CCCN2C(=O)[C@H]2CCCN2C(=O)[C@H](CCCCN)NC(=O)[C@H](CCCNC(N)=O)NC(=O)[C@H](Cc2ccc(O)cc2)NC1=O [compound 24] (cyclo(YR[Cit]FRFPRR[2Nal]VY[Cit]K[dP]P))
CC50 at 48 h (in vitro): 108 µM
Hemolysis at 100 μM [1]: 0.7%
IC50 (CXCR4): 850 nM

CC(C)[C@@H]1NC(=O)[C@H](Cc2ccc3ccccc3c2)NC(=O)[C@H](CCCNC(=N)N)NC(=O)[C@H](CCCNC(=N)N)NC(=O)[C@H]2CCCN2C(=O)[C@H](CCCNC(N)=O)NC(=O)[C@H](CCCNC(=N)N)NC(=O)[C@H](C(C)C)NC(=O)[C@H](CCCNC(N)=O)NC(=O)[C@H](CCCNC(=N)N)NC(=O)[C@H](Cc2ccc(O)cc2)NC(=O)[C@@H]2CCCN2C(=O)[C@H]2CCCN2C(=O)[C@H](CCCCN)NC(=O)[C@H](CCCNC(N)=O)NC(=O)[C@H](Cc2ccc(O)cc2)NC1=O [compound 25] (cyclo(YR[Cit]VR[Cit][dP]RR[2Nal]VY[Cit]K[dP]P))
CC50 at 48 h (in vitro): 108 µM
Hemolysis at 100 μM [1]: 0%
IC50 (CXCR4): 1000 nM

CC(C)[C@@H]1NC(=O)[C@H](CCCNC(=N)N)NC(=O)[C@H](Cc2ccccc2)NC(=O)[C@H](CCCNC(N)=O)NC(=O)[C@H](CCCNC(=N)N)NC(=O)[C@H](Cc2ccc(O)cc2)NC(=O)[C@@H]2CCCN2C(=O)[C@H]2CCCN2C(=O)[C@H](CCCCN)NC(=O)[C@H](CCCNC(N)=O)NC(=O)[C@H](Cc2ccc(O)cc2)NC(=O)[C@H](Cc2ccccc2)NC(=O)[C@H](Cc2ccc3ccccc3c2)NC(=O)[C@H](CCCNC(=N)N)NC(=O)[C@H](CCCNC(=N)N)NC(=O)[C@@H]2CCCN2C1=O [compound 28] (cyclo(YR[Cit]FRVPRR[2Nal]FY[Cit]K[dP]P))
CC50 at 48 h (in vitro): 117 µM
Hemolysis at 100 μM [1]: 0.9%
IC50 (CXCR4): 2680 nM

CC(C)[C@@H]1NC(=O)[C@H](CCCNC(N)=O)NC(=O)[C@H](CCCNC(=N)N)NC(=O)[C@H](Cc2ccc(O)cc2)NC(=O)[C@@H]2CCCN2C(=O)[C@H]2CCCN2C(=O)[C@H](CCCCN)NC(=O)[C@H](CCCNC(N)=O)NC(=O)[C@H](Cc2ccc(O)cc2)NC(=O)[C@H](Cc2ccccc2)NC(=O)[C@H](Cc2ccc3ccccc3c2)NC(=O)[C@H](CCCNC(=N)N)NC(=O)[C@H](CCCNC(=N)N)NC(=O)[C@@H]2CCCN2C(=O)[C@H](CCCNC(N)=O)NC(=O)[C@H](CCCNC(=N)N)NC1=O [compound 31] (cyclo(YR[Cit]VR[Cit]PRR[2Nal]FY[Cit]K[dP]P))
CC50 at 48 h (in vitro): 82 µM
Hemolysis at 100 μM [1]: 0.1%
IC50 (CXCR4): 1470 nM

CC(C)[C@@H]1NC(=O)[C@H](CCCNC(N)=O)NC(=O)[C@H](CCCNC(=N)N)NC(=O)[C@H](Cc2ccc(O)cc2)NC(=O)[C@@H]2CCCN2C(=O)[C@H]2CCCN2C(=O)[C@H](CCCCN)NC(=O)[C@H](CCCNC(N)=O)NC(=O)[C@H](Cc2ccc(O)cc2)NC(=O)[C@H](Cc2ccccc2)NC(=O)[C@H](Cc2ccc3ccccc3c2)NC(=O)[C@H](CCCNC(=N)N)NC(=O)[C@H](CCCNC(=N)N)NC(=O)[C@H]2CCCN2C(=O)[C@H](C(C)C)NC(=O)[C@H](CCCNC(=N)N)NC1=O [compound 32] (cyclo(YR[Cit]VRV[dP]RR[2Nal]FY[Cit]K[dP]P))
CC50 at 48 h (in vitro): 85 µM
Hemolysis at 100 μM [1]: 0.5%
IC50 (CXCR4): 760 nM

N=C(N)NCCC[C@@H]1NC(=O)[C@H](Cc2ccccc2)NC(=O)[C@H](CCCNC(N)=O)NC(=O)[C@H](CCCNC(=N)N)NC(=O)[C@H](Cc2ccc(O)cc2)NC(=O)[C@@H]2CCCN2C(=O)[C@H]2CCCN2C(=O)[C@H](CCCCN)NC(=O)[C@H](CCCNC(N)=O)NC(=O)[C@H](Cc2ccc(O)cc2)NC(=O)[C@H](Cc2ccccc2)NC(=O)[C@H](Cc2ccc3ccccc3c2)NC(=O)[C@H](CCCNC(=N)N)NC(=O)[C@H](CCCNC(=N)N)NC(=O)[C@H]2CCCN2C(=O)CNC1=O [compound 38] (cyclo(YR[Cit]FRG[dP]RR[2Nal]FY[Cit]K[dP]P))
CC50 at 48 h (in vitro): 348 µM
Hemolysis at 100 μM [1]: 0.3%
IC50 (CXCR4): 720 nM

Reference: US8895695B2, “Template-fixed beta-hairpin peptidomimetics with CXCR4 antagonizing activity” (priority 2003, dated 2014)
